This note sets out measurements from ChEMBL document CHEMBL6134864, “Discovery of FLT3-ITD Inhibitor Clifutinib: A Novel Biphenylacetylene Urea Derivative in Clinical Trials for the Treatment of Relapsed/Refractory FLT3-ITD+ Acute Myeloid Leukemia” (J Med Chem, 2025).

Data set [1] is described as follows: Cmax in monkey plasma at 1 mg/kg, iv measured up to 24 hrs by LC-MS/MS analysis. Type of data set: ADME, organism-based, Macaca mulatta. The settings on record: rhesus monkey.
The nature of data set [2]: Half life in monkey plasma at 1 mg/kg, iv measured up to 24 hrs by LC-MS/MS analysis. Type of data set: ADME, organism-based, Macaca mulatta. Particulars: rhesus monkey.
Data set [3] concerns Receptor-type tyrosine-protein kinase FLT3 (Homo sapiens), P36888 [UNDEFINED MUTATION]. Kind of data set: Inhibition of FLT3 in human MV4-11 cells harbouring FLT3-ITD mutant assessed as effect on AKT protein level at 1 to 1000 nM measured after 2 hrs by Western blot analysis. Type of data set: cell-based. Particulars: dose 1-1000 nM. (A western blot detects proteins with antibodies after separation by electrophoresis.)

Data set [4] concerns the target Discoidin domain-containing receptor 2 (Homo sapiens, UniProt Q16832, T654M). Briefly: Inhibition of human DDR2 T654M mutant by biochemical kinase binding assay.
Data set [5] is described as follows: Tmax in NOD/SCID mouse plasma xenografted with human MV4-11 cells at 4.5 mg/kg, po measured up to 24 hrs by LC-MS/MS analysis. Type of data set: ADME, organism-based. For orientation: A xenograft is tissue or cells of one species grown in another, often human tumour cells in immunodeficient mice.
Data set [6] in a line: Tmax in NOD/SCID mouse tumor xenografted with human MV4-11 cells at 4.5 mg/kg, po measured up to 24 hrs by LC-MS/MS analysis. Type of data set: ADME, organism-based, Neoplasm.
The nature of data set [7]: Cmax in NOD/SCID mouse tumor xenografted with human MV4-11 cells at 0.5 mg/kg, po measured up to 24 hrs by LC-MS/MS analysis. Type of data set: ADME, organism-based, Neoplasm.

SMILES strings stand for the structures. The source made the active and inactive calls. The calls are words filed in the database; no cut-off is given here.

Chain of Receptor-type tyrosine-protein kinase FLT3 (Homo sapiens), P36888 [UNDEFINED MUTATION] (P36888 whole entry, looked up, stated change not applied): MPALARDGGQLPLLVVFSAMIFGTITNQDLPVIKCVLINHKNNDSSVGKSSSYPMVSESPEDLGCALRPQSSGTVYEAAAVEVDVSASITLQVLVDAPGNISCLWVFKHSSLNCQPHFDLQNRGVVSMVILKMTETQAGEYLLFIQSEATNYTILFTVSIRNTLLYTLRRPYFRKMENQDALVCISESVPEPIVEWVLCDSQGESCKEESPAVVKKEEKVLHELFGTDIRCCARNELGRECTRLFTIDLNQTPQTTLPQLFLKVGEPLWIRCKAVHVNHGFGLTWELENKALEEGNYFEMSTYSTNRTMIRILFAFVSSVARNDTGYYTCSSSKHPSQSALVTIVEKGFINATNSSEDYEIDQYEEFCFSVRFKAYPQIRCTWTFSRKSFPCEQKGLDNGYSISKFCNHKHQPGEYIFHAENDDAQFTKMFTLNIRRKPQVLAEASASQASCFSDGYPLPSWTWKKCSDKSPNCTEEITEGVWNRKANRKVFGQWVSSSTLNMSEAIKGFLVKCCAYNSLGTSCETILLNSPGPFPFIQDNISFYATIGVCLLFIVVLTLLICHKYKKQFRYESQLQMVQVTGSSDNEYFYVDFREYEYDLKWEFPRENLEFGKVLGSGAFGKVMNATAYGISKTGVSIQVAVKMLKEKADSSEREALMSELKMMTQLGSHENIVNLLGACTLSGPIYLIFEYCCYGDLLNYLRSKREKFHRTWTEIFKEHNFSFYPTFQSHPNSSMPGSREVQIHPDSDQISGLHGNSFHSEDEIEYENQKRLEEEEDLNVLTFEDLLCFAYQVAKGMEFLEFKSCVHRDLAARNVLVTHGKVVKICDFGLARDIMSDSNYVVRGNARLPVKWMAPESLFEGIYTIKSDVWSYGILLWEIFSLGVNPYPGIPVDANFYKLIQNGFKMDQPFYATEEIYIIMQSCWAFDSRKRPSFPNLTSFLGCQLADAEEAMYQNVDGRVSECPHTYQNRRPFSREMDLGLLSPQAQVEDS
Chain of Discoidin domain-containing receptor 2 (Q16832 22-855 T654M limits assumed): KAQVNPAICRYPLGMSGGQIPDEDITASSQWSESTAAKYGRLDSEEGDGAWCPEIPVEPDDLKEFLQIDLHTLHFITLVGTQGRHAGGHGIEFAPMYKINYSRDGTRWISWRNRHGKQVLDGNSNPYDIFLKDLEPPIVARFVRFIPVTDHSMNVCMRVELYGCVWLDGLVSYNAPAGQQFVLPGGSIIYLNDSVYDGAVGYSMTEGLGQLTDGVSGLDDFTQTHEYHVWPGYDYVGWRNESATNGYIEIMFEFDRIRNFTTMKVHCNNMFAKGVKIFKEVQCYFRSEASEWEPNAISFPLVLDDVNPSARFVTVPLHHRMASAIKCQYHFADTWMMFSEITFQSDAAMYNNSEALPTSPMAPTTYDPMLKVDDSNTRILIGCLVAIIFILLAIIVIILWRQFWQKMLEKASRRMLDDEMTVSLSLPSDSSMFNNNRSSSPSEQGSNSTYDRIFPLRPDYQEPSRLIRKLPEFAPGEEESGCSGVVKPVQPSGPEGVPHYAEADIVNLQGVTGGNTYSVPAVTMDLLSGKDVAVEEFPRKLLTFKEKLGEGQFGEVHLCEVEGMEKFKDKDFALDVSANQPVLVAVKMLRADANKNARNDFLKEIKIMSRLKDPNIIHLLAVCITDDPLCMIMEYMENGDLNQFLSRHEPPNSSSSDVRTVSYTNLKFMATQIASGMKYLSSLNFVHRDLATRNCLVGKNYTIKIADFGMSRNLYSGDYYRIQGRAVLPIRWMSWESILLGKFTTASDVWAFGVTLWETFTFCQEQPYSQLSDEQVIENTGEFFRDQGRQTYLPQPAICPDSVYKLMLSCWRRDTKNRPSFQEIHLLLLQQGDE

In general, Cmax refers to the peak of the concentration-time curve. For orientation: half-life means the time in which the quantity being followed falls by half. In general, IC50 refers to the concentration that inhibits the measured activity by half. One may read the Tmax as the time at which the peak concentration occurs. Turning to `CC(C)(C)c1cc(NC(=O)Nc2ccc(C#Cc3ccc(OCCCN4CCOCC4)cc3)cc2)no1`, the maximum concentration (Cmax) came out at 4720 ng/mL in data set [1] and 23.3 ng/mL in data set [7]. The compound also gave a half-life in data set [2] of 13.1 h. In data set [3], the inhibition result was “inactive”. For the same compound, in data set [4], the IC50 was 422 nM. The Tmax in data set [5] worked out at 1 h; in data set [6] it was 6 h.
